{"source": "patent US12043602B2", "about": "“Fendiline derivatives” (The Board of Regents of the University of Texas System, priority 2019, dated 2024)", "key": {"BxPC-3 tumors": {"system": "BxPC-3 tumors", "test": "In vivo tumor growth assay (xenograft)", "parameters": "species or system nu/nu mice", "details": "12.5 mg/kg intraperitoneally", "description": "FIG. 4. Inhibition of tumor growth in vivo by fendiline. Nu/nu mice implanted with BxPC-3 or MIAPaCa-2 tumors were treated with vehicle (DMSO) or fendiline (12.5 mg/kg) intraperitoneally and tumor sizes were measured with an external caliper every 3-4 days. Time and fendiline treatment affected MiaPaCa2 xenograft growth (2-way ANOVA, p=0.027).\nEarly passage BxPC-3 or MIAPaCa-2 cells were harvested, and 2-3X106 cells were implanted into the right flanks of nu/nu mice. The animals were randomized into control and treated groups (10 mice per group). Tumor volume (V) was measured with an external caliper every 3-4 days and it was calculated as V=0.52 (length×width2). Drug treatment was initiated 4 days after tumor implantation. Drugs were injected daily intraperitoneally (at doses indicated) for 5 days, with 2 days of no treatment in between. All treatments were continued until any of the subcutaneous tumors reached 1500 mm3 in volume or for 6 weeks (whichever was first), when all the animals were sacrificed and the tumors removed."}, "[1]": {"system": "MAPK pathway inhibitors such as trametinib", "test": "Combination with MAPK pathway inhibitors", "details": "preliminary findings"}}, "data": [{"smiles": "CC(NCCC(c1ccccc1)c1ccccc1)c1ccccc1", "note": "(centres unmarked) [Fendiline]", "values": [{"measurement": "BxPC-3 xenograft growth", "setting": "BxPC-3 tumors", "result": "No significant effects"}]}, {"smiles": "COc1ccc([C@@H](C)N(CC=C(c2ccccc2)c2ccccc2)CCN2CCCC2)cc1", "note": "[NY0331, (R)-N-(1-(4-methoxyphenyl)ethyl)-3,3-diphenyl-N-(2-(pyrrolidin-1-yl)ethyl)prop-2-en-1-amine]", "values": [{"measurement": "synergy with MAPK pathway inhibitors", "setting": "[1]", "result": "synergizes"}]}]}
